The record followed here is US10155021B2, “Antimicrobial 4-oxoquinolizines” (Emergent Product Development Gaithersburg Inc., priority 2011, dated 2018).

Converted amounts (≈) assume the structure as drawn. Where two headings read alike, the source gives them in different places.

Experiment [1] relates to resistant strains of A. baumannii and one strain of Acinetobacter sp. In words: MIC without and with sub-inhibitory polymyxin B, whole panel / MIC ranges (Example 4; also strains not listed separately). The experiment is classed as cell-based. Particulars: A. baumannii A14; ratio, PB 0.06 μg/ml; 1st experiment.
The subject of another experiment is B. thailandensis. In words: microbe, parasite or virus in culture. In kind it is cell-based, Burkholderia thailandensis. Particulars: for MIC90: Burkholderia thailandensis, read-out: MIC90 B. thailandensis.
The next experiment concerns A. baumannii A387. The experiment is described as follows: MIC without and with sub-inhibitory polymyxin B (Example 4). Particulars: A. baumannii A387; +0.06 μg/ml polymyxin B; 1st experiment. The experiment is classed as cell-based, Acinetobacter baumannii.
The test system of the next experiment is B. thailandensis E264. In words: microbe, parasite or virus in culture. The experiment is classed as cell-based, Burkholderia thailandensis. Particulars: Burkholderia thailandensis, E264, read-out: MIC B. thailandensis E264.
The subject of the next experiment is P. aeruginosa ATCC 27853. In words: MIC, selected panel of Gram-positive and Gram-negative strains (Example 5). In kind it is cell-based.
The test system of a further experiment is S. aureus ATCC 25923. The experiment is described as above. In kind it is cell-based.
The subject of experiment [2] is S. aureus ATCC 43300 (MRSA, FQ-S). The description is as above. In kind it is cell-based, Staphylococcus aureus.
Experiment [3] concerns S. aureus BAA-1556 (USA300-Type MRSA, FQ-R). The description is as above. In kind it is cell-based, Staphylococcus aureus.
The test system of the next experiment is A. baumannii ATCC 19606. The experiment is described as above. The experiment is classed as cell-based, Acinetobacter baumannii.
A further experiment concerns E. coli ATCC 25922. The experiment is described as above. The experiment is classed as cell-based, Escherichia coli.
The mark [4] stands for this setting: Pseudomonas aeruginosa, ATCC27853; read-out: MIC P. aeruginosa ATCC 27853.
Where [5] appears, read: Staphylococcus aureus, ATCC25923; read-out: MIC S. aureus ATCC 25923.
The mark [6] stands for this setting: Staphylococcus aureus; read-out: MIC S. aureus ATCC 43300 (MRSA, FQ-S).
[7] abbreviates: Staphylococcus aureus; read-out: MIC S. aureus BAA-1556 (USA300-Type MRSA, FQ-R).
Where [8] appears, read: Acinetobacter baumannii, ATCC19606; read-out: MIC A. baumannii ATCC 19606.
Where [9] appears, read: Escherichia coli, ATCC25922; read-out: MIC E. coli ATCC 25922.
Setting [10] is: Pseudomonas aeruginosa, ATCC27853, read-out: MIC P. aeruginosa ATCC 27853.
Setting [11] is: Staphylococcus aureus, ATCC25923, read-out: MIC S. aureus ATCC 25923.
The mark [12] stands for this setting: Staphylococcus aureus, read-out: MIC S. aureus ATCC 43300 (MRSA, FQ-S).
Where [13] appears, read: Staphylococcus aureus, read-out: MIC S. aureus BAA-1556 (USA300-Type MRSA, FQ-R).
Setting [14] is: Acinetobacter baumannii, ATCC19606, read-out: MIC A. baumannii ATCC 19606.
[15] abbreviates: Escherichia coli, ATCC25922, read-out: MIC E. coli ATCC 25922.

As to “8-[(3S)-3-aminocyclopentyl]-1- cyclopropyl-7-fluoro-9-methyl- 4-oxo-quinolizine-3-carboxylic acid [Compound 10]”, in [1], the “MIC without PB/MIC + PB” value is 1. Besides, the “Dilutions improvement shift on B. thailandensis MIC90 (between pH 7 and pH 5)” value in the experiment with B. thailandensis (pH 7 versus pH 5) is “Yes, 2×”. Moreover, the “MIC +0.06 μg/ml PB” value with A. baumannii A387 amounted to 0.5 µg/mL.

For `Cc1ccc(-c2ccn3c(=O)c(C(=O)O)cc(C4CC4)c3c2C)cc1` [Compound 15, 8-(p-tolyl)-1-cyclopropyl-9-methyl-4-oxo-quinolizine-3-carboxylic acid], the MIC90 in the experiment with B. thailandensis was less than 0.048 µg/mL.

For `Cc1c(-c2ccc(CN)o2)ccn2c(=O)c(C(=O)O)cc(C3CC3)c12` [Compound 12], the MIC90 with B. thailandensis turned out to be 0.39 µg/mL (≈ 1.15 µM).

In the case of `Cc1c(-c2cnc(N)nc2)ccn2c(=O)c(C(=O)O)cc(C3CC3)c12` [Compound 57, 8-(2-aminopyrimidin-5-yl)-1-cyclopropyl-9-methyl-4-oxo-quinolizine-3-carboxylic acid], the MIC with B. thailandensis E264 is more than 8 µg/mL; in the experiment on P. aeruginosa ATCC 27853 (setting [4]), more than 8 µg/mL; in the experiment on S. aureus ATCC 25923 (setting [5]) it was 0.25 to 0.5 µg/mL (≈ 0.743 to 1.49 µM); in experiment [2] (setting [6]), 0.25 µg/mL (≈ 0.743 µM); in experiment [3] (setting [7]), 8 µg/mL (≈ 23.8 µM); in the experiment on A. baumannii ATCC 19606 (setting [8]) it was 8 µg/mL (≈ 23.8 µM). The MIC in the experiment on E. coli ATCC 25922 (setting [9]) was determined as 1 µg/mL (≈ 2.97 µM).

Regarding `Cc1c(-c2cccc3[nH]ncc23)ccn2c(=O)c(C(=O)[O-])cc(C3CC3)c12.[K+]` [Compound 82K salt, potassium 8-(1H-indazol-4-yl)-1-cyclopropyl-9-methyl-4-oxo-4H-quinolizine-3-carboxylate], the MIC is 4 µg/mL with B. thailandensis E264; 8 µg/mL with P. aeruginosa ATCC 27853 (setting [10]); 0.016 µg/mL with S. aureus ATCC 25923 (setting [11]); 0.016 µg/mL in experiment [2] (setting [12]); 1 µg/mL in experiment [3] (setting [13]); 1 µg/mL in the experiment on A. baumannii ATCC 19606 (setting [14]). The MIC with E. coli ATCC 25922 (setting [15]) lay within 0.125 to 0.25 µg/mL.

For `Cc1c(-c2ccc3c(c2)C(=O)NC3)ccn2c(=O)c(C(=O)[O-])cc(C3CC3)c12.[K+]` [Compound 68K salt, potassium 8-(3-oxoisoindolin-5-yl)-1-cyclopropyl-9-methyl-4-oxo-4H-quinolizine-3-carboxylate], the MIC in the experiment with B. thailandensis E264 is 1 µg/mL; in the experiment on P. aeruginosa ATCC 27853 (setting [10]), 2 µg/mL; in the experiment on S. aureus ATCC 25923 (setting [11]) it was not above 0.004 µg/mL; in [2] (setting [12]), not above 0.004 µg/mL; in [3] (setting [13]), 0.25 µg/mL; with A. baumannii ATCC 19606 (setting [14]), 0.25 µg/mL. In the experiment on E. coli ATCC 25922 (setting [15]), the MIC came out at 0.064 µg/mL.

For the compound `Cc1c(-c2ccc(C#N)cc2)ccn2c(=O)c(C(=O)O)cc(C3CC3)c12` [Compound 14, 8-(4-cyanophenyl)-1-cyclopropyl-9-methyl-4-oxo-quinolizine-3-carboxylic acid], the MIC90 in the experiment on B. thailandensis is less than 0.048 µg/mL.

Take `Cc1c(-c2ccc3c(c2)NC(=O)C(N)C3)ccn2c(=O)c(C(=O)O)cc(C3CC3)c12` (stereo not drawn) [Compound 54, 8-(3-amino-2-oxo-3,4-dihydro-1H-quinolin-7-yl)-1-cyclopropyl-9-methyl-4-oxo-quinolizine-3-carboxylic acid]: the MIC with B. thailandensis E264 was 4 µg/mL (≈ 9.91 µM); with P. aeruginosa ATCC 27853 (setting [4]), more than 8 µg/mL; in the experiment on S. aureus ATCC 25923 (setting [5]) it was 0.064 to 0.125 µg/mL (≈ 0.159 to 0.31 µM); in [2] (setting [6]) it was 0.064 µg/mL (≈ 0.159 µM); in experiment [3] (setting [7]), 0.5 µg/mL (≈ 1.24 µM); in the experiment with A. baumannii ATCC 19606 (setting [8]), 4 µg/mL (≈ 9.91 µM). Also, the MIC in the experiment on E. coli ATCC 25922 (setting [9]) was found to be 0.25 µg/mL (≈ 0.62 µM).

Take `Cc1c(-c2ccc(CN)s2)ccn2c(=O)c(C(=O)O)cc(C3CC3)c12` [Compound 13]: in the experiment with B. thailandensis, the MIC90 is 0.195 µg/mL (≈ 0.55 µM).

For `Cc1cc(-c2ccn3c(=O)c(C(=O)O)cc(C4CC4)c3c2C)c(Cl)cc1N` [Compound 11, 8-(2-chloro-4-amino-5-methyl-phenyl)-1-cyclopropyl-9-methyl-4-oxo-quinolizine-3-carboxylic acid], the MIC90 in the experiment on B. thailandensis is less than 0.048 µg/mL.
